What was measured:
[1] = target: T1, mouse IL-36γ (Mus musculus, UniProt Q8R460); assay: Affinity for mouse IL-36γ; assay type: binding
T1 sequence (Q8R460 13-164): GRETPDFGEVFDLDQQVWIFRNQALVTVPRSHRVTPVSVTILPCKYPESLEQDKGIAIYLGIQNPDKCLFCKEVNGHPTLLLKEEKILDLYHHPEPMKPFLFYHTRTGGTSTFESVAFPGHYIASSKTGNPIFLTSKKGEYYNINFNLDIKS

[2] = target: T2, human IL-36γ (Homo sapiens, UniProt Q9NZH8); assay: Thermal shift assay, human IL-36γ; assay type: binding; conditions: 100 μM compound; read-out: increase of melting temperature of human IL-36γ
T2 construct: His6-SUMO-human IL-36γ (18–169); His6-SUMO (N, cleaved yes); made in house; host or cells: E. coli BL21 (DE3)
T2 sequence (Q9NZH8 18-169): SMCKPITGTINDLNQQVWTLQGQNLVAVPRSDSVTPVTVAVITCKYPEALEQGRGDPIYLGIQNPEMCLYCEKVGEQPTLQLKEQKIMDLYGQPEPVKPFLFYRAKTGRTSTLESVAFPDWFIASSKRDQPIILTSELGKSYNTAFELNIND
Procedure: Thermal shift assays[30] were performed on a Roche LightCycler 480 instrument using Sypro Orange Dye (Invitrogen). Reactions consisted of 0.5–2 µM purified recombinant protein in PBS, pH 7.4, a 1/500 dilution of the stock Sypro Orange reagent, and 100 µM test compounds, resulting in a final DMSO concentration of 1%. The samples were heated from 20 °C to 95 °C at a rate of 0.25 °C per second.

[3] = target: T3, mouse IL-36α (Mus musculus, UniProt Q9JLA2); assay: Cross-reactivity to mouse IL-36α; assay type: binding
T3 sequence (Q9JLA2 8-160): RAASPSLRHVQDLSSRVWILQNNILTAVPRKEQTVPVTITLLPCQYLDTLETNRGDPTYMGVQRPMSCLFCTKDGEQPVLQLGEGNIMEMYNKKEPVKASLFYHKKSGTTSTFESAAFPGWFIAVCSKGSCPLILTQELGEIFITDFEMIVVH

[4] = system: human IL-36γ induced plasma CXCL1; assay: hIL-36γ induced CXCL1 release in mouse plasma; assay type: in vivo; conditions: C57BL/6 mice, compounds 10, 30 and 100 mg/kg p.o.; antibody i.p.
Excerpt: Female C57BL/6 mice (9–10 weeks old, 19–23 g) were purchased from Charles River Laboratories. All animal procedures were approved by AbbVie’s Institutional Animal Care and Use Committee (IACUC) and performed in accordance with the relevant IACUC guidelines and regulations. To examine engagement of human IL-36γ with antagonists under in vivo conditions, a mouse acute CXCL1 release assay was established which was similar to one previously reported. Plasma CXCL1 secretion was induced by subcutaneous injection of 2 μg human IL-36γ (in 100 μL PBS) into C57BL/6 mice. Blood was withdrawn via cardiac puncture 2 h after the challenge with IL-36γ. A-552 and A-553 were dosed at 10, 30 and 100 mg/kg p.o. 45 min before IL-36γ challenge. Anti-IL36R antibodies were dosed i.p. at 24 hours before IL-36γ challenge. Plasma CXCL1 levels were analyzed using MSD V-PLEX kit.

SMILES: COC(c1ccccc1)(c1ccccc1)[C@H](Oc1nc(C)cc(-c2ccc(C)c(N)c2)n1)C(=O)O [Compound A-552]
- affinity for mouse IL-36γ [1]: does not show affinity
- ΔTm at 100 µM [2]: 6.1 °C
- cross-reactivity to mouse IL-36α [3]: lack of species cross-reactivity
- effect on hIL-36γ induced plasma CXCL1 release (in words) [4]: robustly attenuated CXCL1 levels in plasma in a dose-dependent manner

Source: paper PMC6591177, “Small Molecule IL-36γ Antagonist as a Novel Therapeutic Approach for Plaque Psoriasis” (Scientific Reports, 2019)
